Experimental findings from patent US20240398783A1, “Compounds and Pharmaceutical Compositions Comprising Inhibitors of Amyloid Peptide Interactions with Glycosaminoglycans, Methods of Treatment and Use Thereof” (Gismo Therapeutics, Inc., priority 2021, published 2024) are described below.

Each structure is given as a SMILES string. Where a name gives a salt, the structure may show the parent alone. Read-outs that look alike come from different tables or passages of the source. Where only a bound is given, the exact number is not on record here.

Test [1] addresses T1, Amyloid-beta(1-42) oligomer binding to heparin (HS-GAG) (Homo sapiens, UniProt P05067).
T1 construct: Beta-amyloid (1-42) was purchased from rPeptide (Cat. No. A1163); purchased rPeptide A1163
In words: Inhibition of Amyloid-beta(1-42) oligomer binding to immobilized heparin-BSA (ELISA). The arrangement: species or system porcine. To be noted: Abeta(1-42) oligomers; for inhibition at 30 µM: 30 μM compound, heparin-BSA, read-out: Abeta42/Heparin Activity (% inhibition class); for IC50: co-incubation on heparin-BSA plates, read-out: Abeta42/Heparin Activity (IC-50). How it is done:
(§1) Porcine intestinal mucosa heparin conjugated to Bovine Serum Albumin (Heparin-BSA) was prepared as described (Najjam, S. et al. 1997, Cytokine 12, 1013-1022). Heparin is a sulfated HS-GAG and is commonly used as a HS-GAG in biochemical and binding assays (Lindahl, U. and Kjellen, L. (2013) ibid). Heparin-BSA at 0.01 mg/ml in Phosphate Buffered Saline (PBS; pH 7.4) was added to a 96 well polystyrene ELISA plate (NUNC Cat. No. 449824; 100 μl per well) and incubated Over Night (ON) at 4 degrees Celsius. For negative controls, ELISA plates were coated with BSA instead of Heparin-BSA, using the same procedure. Following the incubation, the plate was washed consecutively, by immersion, with de-ionized water and PBS (pH 7.4). The ELISA plate was then blocked with nonfat milk (2%, 200 μl per well) for 2 hours at Room Temperature (RT) with gentle shaking. Following blocking, the plate was washed with de-ionized water then PBS (pH 7.4). GBAPs were dissolved and diluted in PBS (pH 6.5, supplemented with 0.1% BSA) at desired concentrations, added to the ELISA plates containing immobilized Heparin-BSA (100 μl per well) and incubated for 2 hours at RT with gentle shaking. Following incubation, the plate was washed with de-ionized water and three times with PBS (pH 6.5) plus Tween. Bound GBAP was detected by a monoclonal antibody specific for that GBAP, followed by incubation with secondary antibody conjugated to horseradish peroxidase (HRP). Antibody was diluted in PBS (pH 6.5 supplemented with 1% BSA). Following each incubation with antibody, the plate was washed with de-ionized water and three times with PBS (pH 6.5) wash buffer containing 0.1% Tween. The peroxidase substrate chromogen, TMB (Dako Cat. No. S1599) was added (100 μl per well) to the ELISA plate and incubated at room temperature. After 5 minutes ELISA Stop Solution (hydrochloric acid 1N, sulfuric acid 3N) was added (100 μl per well) to stop the peroxidase catalyzed colorimetric reaction. The Optical Density of the samples was measured at 450 nm using an ELISA plate reader (BioTek Synergy H1). Following color development, the % inhibition compared to control (BSA-coated plates) was determined. IC-50s were calculated using GraphPad Prism software.
The assay was performed as described in Example 43, with the following modifications. Following to coating the plates with Heparin-BSA, plates were washed as described. The compounds were dissolved in DMSO at 10 mM final concentration and further diluted prior to assay. DMSO concentration in the screening well was up to 2%. Individual compounds were co-incubated with Beta-amyloid peptides on plates containing immobilized heparin. Beta-amyloid (1-42) was purchased from rPeptide (Cat. No. A1163) and used to prepare oligomers according to Stine et al., 2003 (J Biol Chem. 278(13):11612-22) as follows. 1,1,1,3,3,3-Hexafluoro-2-propanol- (HFIP; Sigma Cat. No. 105228)-treated Beta amyloid (1-42) was dissolved in dry DMSO (Sigma Cat. No. D2650) to 5 mM concentration. Dissolved Beta amyloid (1-42) was then diluted to 100 μM in ice-cold cell culture medium (phenol red-free Ham's F-12; Caisson Labs, Cat. No. HFL05), followed immediately by vortexing for 30 seconds, and incubating at 4 degrees Celsius for 24 h. Resulting Beta amyloid (1-42) oligomers were centrifuged at 12,000 rpm for 10 min at 4 degree Celsius to remove aggregates. Oligomers were then quickly frozen and kept in aliquots at −80 degrees Celsius. Beta-amyloid (1-40) from rPeptide (Cat No. A1153) was dissolved in DMSO, quickly frozen and kept in aliquots at −80 degrees Celsius. Beta-amyloid (1-42) oligomers or Beta-amyloid (1-40) diluted in PBS (pH 6.5, supplemented with BSA, 0.1%) were added to the ELISA plate (100 μl per well) and incubated for 2 hours at RT with gentle shaking. Following the incubation, the plate was washed with de-ionized water and three times with PBS (pH 6.5) plus Tween. […]

Test [2] has as its target Alpha-Synuclein Protofibril binding to heparin (HS-GAG) (Homo sapiens, UniProt P37840). In words: Inhibition of alpha-synuclein protofibril binding to immobilized heparin-BSA (ELISA). As to conditions: for inhibition at 30 µM: read-out: Alpha-Synuclein/Heparin Activity (% inhibition class). Details: species or system porcine. Here is the method:
as §1
The assay was performed as described in Example 43, with the following modifications. Following to coating the plates with Heparin-BSA, plates were washed as described. The compounds were dissolved in DMSO at 10 mM final concentration and further diluted prior to assay. DMSO concentration in the screening well was up to […]. Individual compounds were co-incubated with alpha-synuclein on plates containing immobilized heparin. Alpha-synuclein purchased from rPeptide (Cat. No. S1001) was used to prepare protofibrils as described in Ihse et al., 2017. Alpha-synuclein was dissolved in PBS (pH7.4) to a concentration of 140 μM (˜2 mg/ml), and incubated for 7 days at 37° C. with rotary agitation (400 rpm). Resulting fibrils were sonicated for 10 minutes in ultrasonic water bath, quickly frozen and kept in aliquots at −80 degrees Celsius. Protofibrillar alpha-synuclein diluted in PBS (pH 6.5, supplemented with BSA, 0.1%) was added to the ELISA plate (100 μl per well) and incubated for 2 hours at RT with gentle shaking. Following the incubation, the plate was washed with de-ionized water and three times with PBS (pH 6.5) plus Tween. Bound Alpha-synuclein was detected by Anti-Alpha-synuclein Monoclonal Antibody 211 (Santa Cruz Cat. No. sc-12767), followed by secondary anti-IgG antibody conjugated to HRP (R&D System, Cat. No. HAF007). Following to color development with TMB, as described in Example 43, the Optical Density of the samples was measured at 450 nm using an ELISA plate reader. Following color development, the % inhibition compared to control (no compound, DMSO control) for every compound was determined.
An example of inhibition curve is shown in FIG. 1 for Inhibitor Compounds 22 and 24. […]
(In general: In an ELISA, binding on a coated surface is turned into a signal by an enzyme label.)

Where [3] appears, read: Alpha-Synuclein/Heparin Activity (IC-50), alpha-synuclein protofibrils, heparin-BSA.
Setting [4] is: 30 μM compound, alpha-synuclein protofibrils, heparin-BSA.

T1 sequence (P05067 672-713): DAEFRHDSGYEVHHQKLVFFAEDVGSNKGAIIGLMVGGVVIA

As for `Cc1cn(-c2ccc(Nc3cncc4cc(Cl)ccc34)cn2)c(C)n1` [Compound 37, 7-chloro-N-(6-(2,4-dimethyl-1H-imidazol-1-yl)pyridin-3-yl)isoquinolin-4-amine phosphoric acid salt], the inhibition at 30 µM in test [1] and in test [2] was less than 30% each time.
As to `Clc1ccc2c(N/N=C/c3ccc(-n4ccnc4)cc3)ccnc2c1` [Compound 38, 4-(2-(4-(1H-imidazol-1-yl)benzylidene)hydrazineyl)-7-chloroquinoline dihydrochloride], the figures for the IC50 in test [1] and in test [2] (setting [3]) were 2.74 µM and 1.88 µM, respectively.
As for `CCN1CCN(c2ccc(Nc3ccnc4cc5ccccc5cc34)cc2)CC1` [Compound 39, N-(4-(4-ethylpiperazin-1-yl)phenyl)benzo[g]quinolin-4-amine], in test [1], the inhibition at 30 µM was less than 30%. For the same molecule, the IC50 in test [2] (setting [3]) was found to be 3.39 µM.
Consider `Cc1ncn(-c2ncc(Nc3ncnc4cc(Cl)ccc34)cc2O)c1C` [Compound 40, 5-((7-chloroquinazolin-4-yl)amino)-2-(4,5-dimethyl-1H-imidazol-1-yl)pyridin-3-ol phosphoric acid salt], for which the IC50 in test [1] is 8.65 µM. For the same molecule, in test [2], the inhibition at 30 µM was less than 30%.
For the molecule `Clc1ccc2c(Nc3ccc(-n4ccnc4)nc3)ncnc2c1` [Compound 41, N-(6-(1H-imidazol-1-yl)pyridin-3-yl)-7-chloroquinazolin-4-amine], the IC50 was 72.4 µM in test [1] and 12.8 µM in test [2] (alpha-synuclein protofibrils, heparin-BSA, read-out: Alpha-Synuclein/Heparin Activity (IC-50)).
Consider `CCN(CC)Cc1cccc(Nc2ccnc3cc(Cl)ccc23)c1` [Compound 42, 7-chloro-N-(3-((diethylamino)methyl)phenyl)quinolin-4-amine], for which the inhibition at 30 µM in test [1] and in test [2] (setting [4]) was less than 30% in each case.
For `C[n+]1ccn(-c2ccc(Nc3ncnc4cc(Cl)ccc34)cn2)c1` [Compound 43, 1-(5-((7-chloroquinazolin-4-yl)amino)pyridin-2-yl)-3-methyl-1H-imidazol-3-ium iodide phosphoric acid salt], the inhibition at 30 µM in test [1] and in test [2] was less than 30% throughout.
As to `Clc1ccc2c(Nc3ccc(-n4cncn4)nc3)ccnc2c1` [Compound 44, N-(6-(1H-1,2,4-triazol-1-yl)pyridin-3-yl)-7-chloroquinolin-4-amine], the IC50 in test [1] came to 35.7 µM; in test [2] (setting [3]), 19.2 µM.
For `CN(C)Cc1cc(Nc2ccnc3cc(Cl)ccc23)ccn1` [Compound 45, 7-chloro-N-(2-((dimethylamino)methyl)pyridin-4-yl)quinolin-4-amine], the inhibition at 30 µM in test [1] and in test [2] (setting [4]) was less than 30% in each case.
